The results in this text go back to patent US20260116921A1, “PEPTIDE INHIBITORS OF INTERLEUKIN-23 RECEPTOR AND THEIR USE TO TREAT INFLAMMATORY DISEASES” (priority 2018, published 2026).

pIC50: −log10 of the molar value. Numbered stars: 1 amine (or outer) side, 2 acyl side, 3 side chain; on linkers, the order of the positions; unused ones are H or OH. Bridge positions count the residues as written; N and C are the ends. Square brackets hold non-standard residues; d marks the D form. Peptide text beside a SMILES is read from it. Trp(7-Me) = Cc1cccc2c(C[C@H](N)C(=O)O)c[nH]c12; Abu(4-yl) = O=C([C@H](CC[*:3])N[*:1])[*:2]; 2Nal = N[C@@H](Cc1ccc2ccccc2c1)C(=O)O; AEF = NCCOc1ccc(C[C@H](N)C(=O)O)cc1; Cit = NC(=O)NCCC[C@H](N)C(=O)O; Pen = CC(C)(S)[C@H](N)C(=O)O; αMeK = C[C@](N)(CCCCN)C(=O)O; Aib = CC(C)(N)C(=O)O; βAla = NCCC(=O)O; Sar = CNCC(=O)O

The target in one assay is T1, IL-23R (Homo sapiens, UniProt Q5VWK5).
T1 sequence (Q5VWK5 24-629): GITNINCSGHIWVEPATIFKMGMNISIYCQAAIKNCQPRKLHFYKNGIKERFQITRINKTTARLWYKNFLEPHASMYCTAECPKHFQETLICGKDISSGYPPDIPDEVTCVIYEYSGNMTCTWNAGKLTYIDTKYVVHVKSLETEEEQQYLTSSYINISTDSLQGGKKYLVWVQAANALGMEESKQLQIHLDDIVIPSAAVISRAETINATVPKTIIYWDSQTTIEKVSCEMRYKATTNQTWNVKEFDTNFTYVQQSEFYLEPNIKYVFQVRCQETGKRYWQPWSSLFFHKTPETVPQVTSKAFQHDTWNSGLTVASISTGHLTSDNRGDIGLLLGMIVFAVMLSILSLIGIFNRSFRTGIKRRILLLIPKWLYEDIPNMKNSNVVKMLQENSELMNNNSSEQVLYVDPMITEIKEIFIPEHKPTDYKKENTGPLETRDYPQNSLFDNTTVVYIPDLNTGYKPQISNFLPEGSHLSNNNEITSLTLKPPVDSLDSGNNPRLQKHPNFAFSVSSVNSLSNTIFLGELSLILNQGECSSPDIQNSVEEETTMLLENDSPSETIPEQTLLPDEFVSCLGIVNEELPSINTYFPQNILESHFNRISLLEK
In words: DB cells IL23R pSTAT3 cell assay (pStat3 HTRF). The assay is classed as cell-based.
Conditions: not given
The source says: Human ELISA indicates the IL23-IL23R competitive binding assay described below, Rat ELISA indicates the rat IL-23R competitive binding ELISA assay described below, and pStat3HTRF indicates the DB cells IL-23R pSTAT3 cell assay described below. The peptides depicted in Table E1 are cyclized via a disulfide bridge formed between two Pen residues in these peptides. The peptides depicted in Table E2 are cyclized via a thioether bond between the indicated amino acid residues. Table E2 provides an illustrative structure depicting thioether cyclization, which is indicated in the table by the term “cyclo,” with the cyclic region bracketed immediately following the term “cyclo.” For certain peptides, the residue Abu is present where indicated, whereas in other embodiments, e.g., those related to the non-cyclized form, the Abu may be referred to as a hSer(Cl) or homoSer residue.
DB Cells IL23R pSTAT3 Cell Assay
IL-23 plays a central role in supporting and maintaining Th17 differentiation in vivo. This process is thought to be mediated primarily through the Signal Transducer and Activator of Transcription 3 (STAT3), with phosphorylation of STAT3 (to yield pSTAT3) leading to upregulation of RORC and pro-inflammatory IL-17. This cell assay examines the levels of pSTAT3 in IL-23R-expressing DB cells when stimulated with IL-23 in the presence of test compounds. Serial dilutions of test peptides and IL-23 (Humanzyme #HZ-1261) at a final concentration of 0.5 nM, were added to each well in a 96 well tissue culture plate (Corning #CLS3894). DB cells (ATCC #CRL-2289), cultured in RPMI-1640 medium (Thermo Scientific #11875093) supplemented with 10% FBS, were added at 5×10E5 cells/well and incubated for 30 minutes at 37° C. in a 5% CO2 humidified incubator. Changes in phospho-STAT3 levels in the cell lysates were detected using the Cisbio HTRF pSTAT3 (Tyr705) Cellular Assay Kit (Cisbio #62AT3PEH), according to manufacturer's Two Plate Assay protocol.
On to `CC(=O)NCCCC[C@H](NC(=O)[C@](C)(CC(C)C)NC(=O)[C@H](Cc1ccc2ccccc2c1)NC(=O)[C@H](Cc1ccc(OCCN)cc1)NC(=O)[C@H]1NC(=O)[C@H](CCC(N)=O)NC(=O)[C@H](Cc2c[nH]c3cc(F)ccc23)NC(=O)[C@H]([C@@H](C)O)NC(=O)[C@H](CC(N)=O)NC(=O)[C@@H](NC(C)=O)C(C)(C)SSC1(C)C)C(=O)N[C@@H](CC(N)=O)C(=O)N[C@@H](CC(N)=O)C(N)=O` [compound 3], for which the pIC50 was 7.00 to 8.00.

As to `CC(=O)NCCCC[C@H](NC(=O)[C@](C)(CC(C)C)NC(=O)[C@H](Cc1c[nH]c2ccc(Cl)cc12)NC(=O)[C@H](Cc1ccc(OCCN)cc1)NC(=O)[C@H]1NC(=O)[C@H](CCC(N)=O)NC(=O)[C@H](Cc2c[nH]c3ccccc23)NC(=O)[C@H]([C@@H](C)O)NC(=O)[C@H](CC(N)=O)NC(=O)[C@@H](NC(C)=O)C(C)(C)SSC1(C)C)C(=O)N[C@@H](CC(N)=O)C(=O)N[C@@H](CC(N)=O)C(N)=O` [compound 12], the pIC50 is < 7.00.

As for `CC(=O)NCCCC[C@H](NC(=O)[C@](C)(CC(C)C)NC(=O)[C@H](Cc1ccc2ccccc2c1)NC(=O)[C@H](Cc1ccc(OCCN)cc1)NC(=O)[C@H]1NC(=O)[C@H](CCC(N)=O)NC(=O)[C@H](Cc2c[nH]c3ccc(Br)cc23)NC(=O)[C@H]([C@@H](C)O)NC(=O)[C@H](CC(N)=O)NC(=O)[C@@H](NC(C)=O)C(C)(C)SSC1(C)C)C(=O)N[C@@H](CC(N)=O)C(=O)N[C@@H](CC(N)=O)C(N)=O` [compound 11], the pIC50 was < 7.00.

For the molecule `CC(=O)NCCCC[C@H](NC(=O)[C@](C)(CC(C)C)NC(=O)[C@H](Cc1c[nH]c2ccc(Br)cc12)NC(=O)[C@H](Cc1ccc(OCCN)cc1)NC(=O)[C@H]1NC(=O)[C@H](CCC(N)=O)NC(=O)[C@H](Cc2c[nH]c3ccccc23)NC(=O)[C@H]([C@@H](C)O)NC(=O)[C@H](CC(N)=O)NC(=O)[C@@H](NC(C)=O)C(C)(C)SSC1(C)C)C(=O)N[C@@H](CC(N)=O)C(=O)N[C@@H](CC(N)=O)C(N)=O` [compound 22], the pIC50 was 8.00 to 9.00.

As for `CC(=O)NCCCC[C@H](NC(=O)[C@](C)(CC(C)C)NC(=O)[C@H](Cc1c[nH]c2ccc(O)cc12)NC(=O)[C@H](Cc1ccc(OCCN)cc1)NC(=O)[C@H]1NC(=O)[C@H](CCC(N)=O)NC(=O)[C@H](Cc2c[nH]c3ccccc23)NC(=O)[C@H]([C@@H](C)O)NC(=O)[C@H](CC(N)=O)NC(=O)[C@@H](NC(C)=O)C(C)(C)SSC1(C)C)C(=O)N[C@@H](CC(N)=O)C(=O)N[C@@H](CC(N)=O)C(N)=O` [compound 21], the pIC50 is < 7.00.

`CCCCCCCC(=O)NCCCC[C@@H]1NC(=O)[C@H](Cc2c[nH]c3c(C)cccc23)NC(=O)[C@H]([C@@H](C)O)NC(=O)[C@H](CC(N)=O)NC(=O)[C@@H](NC(C)=O)C(C)(C)SSC(C)(C)[C@@H](C(=O)N[C@@H](Cc2ccc(OCCN)cc2)C(=O)N[C@@H](Cc2ccc3ccccc3c2)C(=O)N[C@@](C)(CCCCN)C(=O)N[C@@H](CCCCNC(C)=O)C(=O)N[C@@H](CC(N)=O)C(=O)N[C@H](CC(C)C)C(N)=O)NC1=O` [compound 317] gave a pIC50 of 8.00 to 9.00.

The assay is the same for the next values; noted with them: Table E3; DB cells, IL-23 0.5 nM, 30 minutes at 37° C.; read-out: pStat3 HTRF (IC50).
Take `CC(=O)NCCCC[C@H](NC(=O)[C@](C)(CCCCN)NC(=O)[C@H](Cc1ccc2ccccc2c1)NC(=O)[C@H](Cc1ccc(OCCN)cc1)NC(=O)[C@H]1NC(=O)[C@H](CCCNC(N)=O)NC(=O)[C@H](Cc2c[nH]c3c(C)cccc23)NC(=O)[C@H]([C@@H](C)O)NC(=O)[C@H](CC(N)=O)NC(=O)[C@@H](NC(C)=O)C(C)(C)SSC1(C)C)C(=O)N[C@@H](CC(N)=O)C(=O)NC(C)(C)C(=O)N[C@@H](CCCNC(=N)N)C(N)=O` [compound 343] (Ac-[Pen]NT[Trp(7-Me)][Cit][Pen][AEF][2Nal][αMeK]K(Ac)N[Aib]R-NH2; disulfide 1-6): the pIC50 was 8.00 to 9.00.

In the case of `COc1cccc2c(C[C@@H]3NC(=O)[C@H]([C@@H](C)O)NC(=O)[C@H](CC(N)=O)NC(=O)[C@@H](NC(C)=O)C(C)(C)SSC(C)(C)[C@@H](C(=O)N[C@@H](Cc4ccc(OCCN)cc4)C(=O)N[C@@H](Cc4ccc5ccccc5c4)C(=O)N[C@@](C)(CCCCN)C(=O)N[C@@H](CCCCNC(C)=O)C(=O)N[C@@H](CC(N)=O)C(=O)N[C@H](CCCCN)C(N)=O)NC(=O)[C@H](CCC(N)=O)NC3=O)c[nH]c12` [compound 297], the negative logarithm of the IC50 (pIC50) is 8.00 to 9.00.

`CC(=O)NCCCC[C@@H]1NC(=O)[C@H](Cc2c[nH]c3c(C)cccc23)NC(=O)[C@H]([C@@H](C)O)NC(=O)[C@H](CCC(N)=O)NC(=O)[C@@H](NC(=O)[C@@H](CCCNC(=N)N)NC(C)=O)CCSC[C@@H](C(=O)N[C@@H](Cc2ccc(OCCN)cc2)C(=O)N[C@@H](Cc2ccc3ccccc3c2)C(=O)N[C@@](C)(CCCCN)C(=O)N[C@@H](CCCCNC(C)=O)C(=O)N[C@@H](CC(N)=O)C(=O)N[C@H](CCCCN)C(=O)N(C)CC(N)=O)NC1=O` [compound 323] (Ac-[dR][Abu(4-yl)]QT[Trp(7-Me)]K(Ac)C[AEF][2Nal][αMeK]K(Ac)N[dK][Sar]-NH2; thioether 2-7): the pIC50 was 8.00 to 9.00.

Consider `CC(=O)NCCCC[C@H](NC(=O)[C@](C)(CCCCN)NC(=O)[C@H](Cc1ccc2ccccc2c1)NC(=O)[C@H](Cc1ccc(OCCN)cc1)NC(=O)[C@H]1NC(=O)[C@H](CCCCNC(=O)[C@H](C)N)NC(=O)[C@H](Cc2c[nH]c3c(C)cccc23)NC(=O)[C@H]([C@@H](C)O)NC(=O)[C@H](CC(N)=O)NC(=O)[C@@H](NC(C)=O)C(C)(C)SSC1(C)C)C(=O)N[C@@H](CC(N)=O)C(=O)N[C@H](CC(C)C)C(N)=O` [compound 314], for which the pIC50 is 8.00 to 9.00.

For the molecule `CC(=O)NCCCC[C@H](NC(=O)[C@](C)(CCCCN)NC(=O)[C@H](Cc1ccc2ccccc2c1)NC(=O)[C@H](Cc1ccc(OCCN)cc1)NC(=O)[C@H]1NC(=O)[C@H](CCCNC(N)=O)NC(=O)[C@H](Cc2c[nH]c3c(C)cccc23)NC(=O)[C@H]([C@@H](C)O)NC(=O)[C@H](CC(N)=O)NC(=O)[C@@H](NC(C)=O)C(C)(C)SSC1(C)C)C(=O)N[C@@H](CC(N)=O)C(=O)NC(C)(C)C(=O)N[C@H](Cc1ccccc1)C(N)=O` [compound 346] (Ac-[Pen]NT[Trp(7-Me)][Cit][Pen][AEF][2Nal][αMeK]K(Ac)N[Aib][dF]-NH2; disulfide 1-6), the pIC50 is > 9.00.

Regarding `CC(=O)NCCCC[C@H](NC(=O)[C@](C)(CCCCN)NC(=O)[C@H](Cc1ccc2ccccc2c1)NC(=O)[C@H](Cc1ccc(OCCN)cc1)NC(=O)[C@H]1NC(=O)[C@H](CCCNC(N)=O)NC(=O)[C@H](Cc2c[nH]c3c(C)cccc23)NC(=O)[C@H]([C@@H](C)O)NC(=O)[C@H](CC(N)=O)NC(=O)[C@@H](NC(C)=O)C(C)(C)SSC1(C)C)C(=O)N[C@@H](CC(N)=O)C(=O)NC(C)(C)C(=O)NCCC(N)=O` [compound 340] (Ac-[Pen]NT[Trp(7-Me)][Cit][Pen][AEF][2Nal][αMeK]K(Ac)N[Aib][βAla]-NH2; disulfide 1-6), the pIC50 was > 9.00.

For `CC(=O)NCCCC[C@H](NC(=O)[C@](C)(CCCCN)NC(=O)[C@H](Cc1ccc2ccccc2c1)NC(=O)[C@H](Cc1ccc(OCCN)cc1)NC(=O)[C@H]1NC(=O)[C@H](CCCNC(N)=O)NC(=O)[C@H](Cc2c[nH]c3c(C)cccc23)NC(=O)[C@H]([C@@H](C)O)NC(=O)[C@H](CC(N)=O)NC(=O)[C@@H](NC(C)=O)C(C)(C)SSC1(C)C)C(=O)N[C@@H](CC(N)=O)C(=O)NC(C)(C)C(=O)N[C@@H](C)C(N)=O` [compound 342] (Ac-[Pen]NT[Trp(7-Me)][Cit][Pen][AEF][2Nal][αMeK]K(Ac)N[Aib]A-NH2; disulfide 1-6), the pIC50 was > 9.00.

Turning to `COc1cccc2c(C[C@@H]3NC(=O)[C@H]([C@@H](C)O)NC(=O)[C@H](CC(N)=O)NC(=O)[C@@H](NC(C)=O)C(C)(C)SSC(C)(C)[C@@H](C(=O)N[C@@H](Cc4ccc(OCCN)cc4)C(=O)N[C@@H](Cc4ccc5ccccc5c4)C(=O)N[C@@](C)(CCCCN)C(=O)N[C@@H](CCCCNC(C)=O)C(=O)N[C@@H](CC(N)=O)C(=O)N[C@H](CCCCN)C(N)=O)NC(=O)[C@H](CCCCNC(C)=O)NC3=O)c[nH]c12` [compound 299], the pIC50 was 8.00 to 9.00.
